Active and inactive are the calls of the source.
Key:
NADPH oxidase 1 = NADPH oxidase 1 (Homo sapiens, UniProt Q9Y5S8); assay type: functional, cell-based;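 note: Cell-based assay with luminescence read-out, IC50 derived from inhibitor dose-response curves; intracellular ROS from endogenous NOX1 in intact HT29 colon cancer cells; potency of inhibitors that lower the ROS luminescence signal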
[1] = NIH-3T3 fibroblast cytotoxicity, dose response, cytotoxicity control, cell-based, fluorescence, Alamar Blue, secondary assay (AID 2327); assay type: functional;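 note: NIH-3T3 mouse fibroblasts cultured with fluconazole at 8 µg/mL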
[2] = fluconazole-exposed Candida albicans growth modulators – fluorescence, retest, confirmation (AID 2467); assay type: functional, cell-based
[3] = Trypanosoma cruzi growth suppression in host cells – NIH3T3 host cells, beta-gal luminescence, confirmation (AID 2044); assay type: functional, cell-based;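 note: intracellular parasites grown in NIH/3T3 mouse fibroblasts as host cells; luminescent beta-galactosidase reporter signal from transgenic T. cruzi replicating inside host cells; inhibitors lower the luminescence signal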
[4] = viability of PTEN-deleted HCT116 cells – cell-based, HCT116 PTEN knockout, dose response (AID 1047); assay type: functional;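 note: HCT116 colon tumor cells with PTEN knocked out; cells exposed to compound for 60 hours before readout; potency for loss of cell viability measured by luminescence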
[5] = Luminescence Cell-Based Dose Confirmation HTS to Identify Inhibitors of Polyadenylation.; assay type: functional
[6] = NIH3T3 cell viability loss – ATP luminescence, mouse fibroblasts, counter-screen, dose response (AID 2010); assay type: functional, cell-based;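 note: cells exposed to compound for about 90 hours before reading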
[7] = viability of HCT116 lacking mutant beta-catenin – cell-based, human colon tumor, dose response (AID 1045); assay type: functional;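 note: HCT116 colon tumor cells with beta catenin knocked out; cells exposed to compound for 60 hours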
[8] = Counterscreen for AddAB inhibitors: absorbance-based bacterial cell-based high throughput dose response assay for inhibitors of bacterial viability. [Related pubchem assays (depositor defined):AID435030, AID449728, AID449731, AID488942, AID488955, AID488956]; assay type: functional
INS1 = assay: INS-1E survival protection against cytokine death – cell-based, luminescence, retest, dose response (AID 449756); assay type: functional; settings: Rattus norvegicus;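 note: cell death triggered by IL-1 beta plus TNF-alpha plus IFN-gamma mixture; protective hits raise ATP signal compared with cytokine alone wells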
Leucine aminopeptidase = molecular target: T1, Leucine aminopeptidase (Plasmodium falciparum 3D7, UniProt Q8IL11); assay: P. falciparum M17LAP inhibitors, primary screen, biochemical, fluorogenic H-Leu-NHMec substrate, 1536-well (AID 1619); assay type: functional
T1 sequence (Q8IL11 whole entry): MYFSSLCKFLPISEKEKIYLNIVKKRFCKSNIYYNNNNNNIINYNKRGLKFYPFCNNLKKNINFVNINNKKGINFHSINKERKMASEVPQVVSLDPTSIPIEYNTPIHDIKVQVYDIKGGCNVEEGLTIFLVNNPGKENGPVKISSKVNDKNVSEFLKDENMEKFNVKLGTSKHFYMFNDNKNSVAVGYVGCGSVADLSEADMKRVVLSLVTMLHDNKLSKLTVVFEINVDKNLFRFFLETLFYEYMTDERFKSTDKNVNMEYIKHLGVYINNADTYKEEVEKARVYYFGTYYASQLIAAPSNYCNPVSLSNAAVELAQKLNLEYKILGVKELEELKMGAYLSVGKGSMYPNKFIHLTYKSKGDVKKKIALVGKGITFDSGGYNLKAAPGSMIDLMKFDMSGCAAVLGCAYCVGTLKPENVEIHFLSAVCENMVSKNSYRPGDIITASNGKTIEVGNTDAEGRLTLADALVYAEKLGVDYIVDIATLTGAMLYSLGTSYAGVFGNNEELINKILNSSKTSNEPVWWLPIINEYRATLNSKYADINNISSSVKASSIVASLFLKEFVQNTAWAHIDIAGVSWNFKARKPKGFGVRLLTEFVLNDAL

Aspartyl aminopeptidase = Aspartyl aminopeptidase (Plasmodium falciparum 3D7, UniProt Q8I2J3); assay: Counterscreen for inhibitors of M1 and M17 aminopeptidases: QFRET-based biochemical high throughput dose response assay for inhibitors of the Plasmodium falciparum M18 Aspartyl Aminopeptidase (PFM18AAP). [Related PubChem assays: 1619 (Screening assay (M17LAP inhibitors).), 1445 (Screening assay (M1AAP inhibitors).)]
Aspartyl aminopeptidase, sequence (Q8I2J3 whole entry): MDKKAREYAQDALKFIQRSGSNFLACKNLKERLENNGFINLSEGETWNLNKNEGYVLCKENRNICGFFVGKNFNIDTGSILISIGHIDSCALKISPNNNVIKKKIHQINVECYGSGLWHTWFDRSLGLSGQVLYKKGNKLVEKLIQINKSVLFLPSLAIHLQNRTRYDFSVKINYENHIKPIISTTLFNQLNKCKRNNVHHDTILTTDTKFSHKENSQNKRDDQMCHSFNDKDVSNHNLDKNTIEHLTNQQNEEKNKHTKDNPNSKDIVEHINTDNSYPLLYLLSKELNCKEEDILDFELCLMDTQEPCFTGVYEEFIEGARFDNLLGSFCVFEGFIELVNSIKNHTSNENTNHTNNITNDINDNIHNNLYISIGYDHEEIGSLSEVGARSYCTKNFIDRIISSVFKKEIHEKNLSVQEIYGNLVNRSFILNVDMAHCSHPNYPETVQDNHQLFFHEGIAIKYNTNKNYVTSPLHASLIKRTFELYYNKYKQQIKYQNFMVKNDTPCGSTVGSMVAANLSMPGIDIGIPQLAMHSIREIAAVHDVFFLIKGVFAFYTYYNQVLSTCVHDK

Procathepsin L = Procathepsin L (Homo sapiens, UniProt P07711); assay: CTSL1 protease inhibition – biochemical, QFRET, 1536-well, counter-screen for M1/M17 aminopeptidase inhibitor project, dose response (AID 2214)
Procathepsin L, sequence (P07711 whole entry): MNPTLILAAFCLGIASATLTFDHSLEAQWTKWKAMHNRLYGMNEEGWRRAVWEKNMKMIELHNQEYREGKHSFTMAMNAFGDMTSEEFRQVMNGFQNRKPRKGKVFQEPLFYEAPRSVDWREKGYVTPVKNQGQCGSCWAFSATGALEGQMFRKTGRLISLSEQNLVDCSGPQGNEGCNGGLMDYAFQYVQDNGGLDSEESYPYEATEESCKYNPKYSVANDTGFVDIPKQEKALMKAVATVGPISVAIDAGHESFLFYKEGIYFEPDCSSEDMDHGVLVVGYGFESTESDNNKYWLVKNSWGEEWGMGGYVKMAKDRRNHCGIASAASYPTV

[9] = molecular target: T2, Heat shock factor protein 1 (Mus musculus, UniProt P38532); assay: enhancement of HSF1-driven luciferase signal – cell-based, NIH3T3, luminescence, dose retest, confirmation (AID 435004); assay type: functional;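 note: stress induced by proteasome inhibitor MG132 added 30 min after compound; luciferase reporter driven by HSF1 response element in NIH3T3 cells; actives raise luminescence as potentiators of the MG132 stress response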
T2 sequence (P38532 whole entry): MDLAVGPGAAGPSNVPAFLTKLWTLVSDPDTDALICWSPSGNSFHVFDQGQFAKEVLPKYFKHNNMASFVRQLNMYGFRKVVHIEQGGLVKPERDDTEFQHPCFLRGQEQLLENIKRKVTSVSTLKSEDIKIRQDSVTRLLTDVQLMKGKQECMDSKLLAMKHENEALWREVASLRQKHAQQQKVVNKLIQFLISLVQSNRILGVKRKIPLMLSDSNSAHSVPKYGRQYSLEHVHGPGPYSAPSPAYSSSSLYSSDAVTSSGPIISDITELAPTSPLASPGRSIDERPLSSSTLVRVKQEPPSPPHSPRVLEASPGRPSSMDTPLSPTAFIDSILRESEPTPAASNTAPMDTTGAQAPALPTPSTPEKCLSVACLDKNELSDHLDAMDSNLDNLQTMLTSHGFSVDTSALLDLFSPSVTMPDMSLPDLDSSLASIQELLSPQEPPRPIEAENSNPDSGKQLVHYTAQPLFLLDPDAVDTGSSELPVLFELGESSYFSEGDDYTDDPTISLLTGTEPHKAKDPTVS

[10] = molecular target: T3, Replicative DNA helicase DnaB (Mycobacterium tuberculosis, UniProt P9WMR3); assay: DnaB intein splicing inhibitors, dose response, biochemical, cell-free fluorescence (AID 449749); assay type: functional
T3 sequence (P9WMR3 whole entry): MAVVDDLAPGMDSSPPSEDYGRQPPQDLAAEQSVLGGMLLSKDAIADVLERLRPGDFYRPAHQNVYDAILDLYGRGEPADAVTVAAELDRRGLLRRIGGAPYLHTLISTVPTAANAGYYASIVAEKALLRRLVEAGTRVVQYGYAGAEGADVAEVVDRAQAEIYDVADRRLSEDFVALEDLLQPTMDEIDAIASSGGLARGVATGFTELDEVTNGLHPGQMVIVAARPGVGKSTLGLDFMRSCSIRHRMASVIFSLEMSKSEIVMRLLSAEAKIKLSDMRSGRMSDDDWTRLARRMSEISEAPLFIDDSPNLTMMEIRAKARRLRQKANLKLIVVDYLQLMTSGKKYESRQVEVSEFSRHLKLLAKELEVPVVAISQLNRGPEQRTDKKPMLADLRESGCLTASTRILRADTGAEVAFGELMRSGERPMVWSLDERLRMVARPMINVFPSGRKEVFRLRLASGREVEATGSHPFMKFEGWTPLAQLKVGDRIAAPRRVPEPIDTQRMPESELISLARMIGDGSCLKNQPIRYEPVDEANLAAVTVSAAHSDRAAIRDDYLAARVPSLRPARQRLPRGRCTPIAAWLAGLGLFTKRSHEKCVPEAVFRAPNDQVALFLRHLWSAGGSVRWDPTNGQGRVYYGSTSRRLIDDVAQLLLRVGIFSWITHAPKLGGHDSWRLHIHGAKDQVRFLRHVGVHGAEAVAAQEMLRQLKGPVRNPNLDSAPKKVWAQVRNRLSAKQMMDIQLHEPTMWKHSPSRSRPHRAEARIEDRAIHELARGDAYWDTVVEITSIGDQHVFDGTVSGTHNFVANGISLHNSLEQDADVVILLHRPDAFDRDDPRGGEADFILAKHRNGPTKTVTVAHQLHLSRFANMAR

Protein RecA = molecular target: T4, Protein RecA (Mycobacterium tuberculosis, UniProt P9WHJ3); assay: Fluorescence Cell-Free Homogeneous Dose Retest to Identify Inhibitors of RecA-Intein Splicing Activity. [Related pubchem assays (depositor defined):AID2097, AID2223, AID489010, AID492950]; assay type: functional
T4 sequence (P9WHJ3 whole entry): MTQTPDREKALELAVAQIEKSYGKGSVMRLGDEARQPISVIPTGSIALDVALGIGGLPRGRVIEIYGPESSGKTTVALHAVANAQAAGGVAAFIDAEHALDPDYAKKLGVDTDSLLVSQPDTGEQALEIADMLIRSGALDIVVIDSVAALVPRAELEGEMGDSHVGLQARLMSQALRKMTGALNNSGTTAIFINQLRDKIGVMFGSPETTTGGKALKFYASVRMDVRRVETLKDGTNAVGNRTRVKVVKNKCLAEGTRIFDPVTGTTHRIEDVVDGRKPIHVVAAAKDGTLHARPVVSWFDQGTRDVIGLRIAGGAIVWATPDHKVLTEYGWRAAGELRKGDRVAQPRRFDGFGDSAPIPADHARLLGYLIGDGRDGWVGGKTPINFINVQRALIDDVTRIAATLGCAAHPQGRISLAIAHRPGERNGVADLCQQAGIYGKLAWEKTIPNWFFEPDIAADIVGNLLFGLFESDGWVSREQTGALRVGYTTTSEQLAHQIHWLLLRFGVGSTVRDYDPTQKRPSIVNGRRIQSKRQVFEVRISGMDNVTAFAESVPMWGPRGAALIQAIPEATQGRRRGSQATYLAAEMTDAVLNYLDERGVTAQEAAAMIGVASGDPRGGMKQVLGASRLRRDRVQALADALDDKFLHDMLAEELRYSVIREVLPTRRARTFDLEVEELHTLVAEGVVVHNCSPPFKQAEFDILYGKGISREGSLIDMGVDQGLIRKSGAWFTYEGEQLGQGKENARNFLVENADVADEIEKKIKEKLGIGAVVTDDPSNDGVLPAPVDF

NADPH oxidase 1, sequence (Q9Y5S8 whole entry): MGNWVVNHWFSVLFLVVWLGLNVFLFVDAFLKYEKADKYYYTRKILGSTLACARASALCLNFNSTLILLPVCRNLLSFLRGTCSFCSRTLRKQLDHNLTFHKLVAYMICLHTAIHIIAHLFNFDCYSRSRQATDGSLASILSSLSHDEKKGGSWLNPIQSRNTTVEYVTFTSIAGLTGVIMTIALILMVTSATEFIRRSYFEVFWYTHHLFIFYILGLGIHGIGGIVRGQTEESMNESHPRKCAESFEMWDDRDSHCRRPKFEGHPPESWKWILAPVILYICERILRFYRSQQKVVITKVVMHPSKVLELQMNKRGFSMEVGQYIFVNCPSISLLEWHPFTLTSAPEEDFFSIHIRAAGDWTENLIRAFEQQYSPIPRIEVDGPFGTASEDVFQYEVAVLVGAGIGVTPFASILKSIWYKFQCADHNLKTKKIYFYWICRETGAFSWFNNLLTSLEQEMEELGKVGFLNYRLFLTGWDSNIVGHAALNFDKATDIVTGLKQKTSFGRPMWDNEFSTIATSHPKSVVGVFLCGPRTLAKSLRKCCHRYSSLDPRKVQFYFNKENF

## COc1ccc2c(Cl)c(C(=O)Oc3ccccc3[N+](=O)[O-])sc2c1
NADPH oxidase 1
  IC50: > 17 µM (not active)

## Cc1ccc2[nH]c(/C(C#N)=C\c3ccc([N+](=O)[O-])o3)nc2c1
[1]
  EC50: 3.01 µM (inconclusive)
[2]
  EC50: 0.387 µM (active)
[3]
  EC50: 0.604 µM (active)
[4]
  EC50: 1.02 µM (active)
[5]
  EC50: 5.85 µM (active)
[6]
  EC50: > 60 µM (not active)
[7]
  EC50: 1.04 µM (active)
[8]
  IC50: > 119 µM (inactive)
INS1
  AC50: 1.92 µM (active)

## Oc1cc(-c2ccc(Cl)c(Cl)c2)[nH]n1
Leucine aminopeptidase
  IC50: < 1 µM (active)
Aspartyl aminopeptidase
  IC50: > 73.5 µM (not active)
Procathepsin L
  IC50: > 59.6 µM (not active)
[9]
  EC50: > 260 µM (inactive)
[10]
  AC50: 2.01 µM (active)
Protein RecA
  EC50: 0.852 µM (active)

— ChEMBL document CHEMBL1201862, “PubChem BioAssay data set” (2004)
